Reference: patent US12503461B2, “Pesticidally active heterocyclic derivatives with sulfur and sulfoximine containing substituents” (SYNGENTA CROP PROTECTION AG, priority 2019, dated 2025)

Experiments:
Format in all cases: in vivo
[1] = tested on: Spodoptera littoralis (Egyptian Cotton Leaf Worm); test: Example B7: Spodoptera littoralis (Egyptian cotton leaf worm), sprayed cotton leaf discs, L1 larvae; conditions: foliar, 72 h, application rate of 200 ppm, 3 days after infestation, in comparison to untreated samples
Procedure: Example B7: Spodoptera littoralis (Egyptian Cotton Leaf Worm
Cotton leaf discs were placed onto agar in 24-well microtiter plates and sprayed with aqueous test solutions prepared from 10′000 ppm DMSO stock solutions. After drying the leaf discs were infested with five L1 larvae. The samples were assessed for mortality, anti-feeding effect, and growth inhibition in comparison to untreated samples 3 days after infestation. Control of Spodoptera littoralis by a test sample is given when at least one of the categories mortality, anti-feedant effect, and growth inhibition is higher than the untreated sample.

[2] = tested on: Frankliniella occidentalis (Western Flower Thrips); test: Example B3: Frankliniella occidentalis (western flower thrips), sprayed sunflower leaf discs; conditions: foliar, 168 h, application rate of 200 ppm, population of mixed ages, 7 days after infestation
Procedure: Example B3: Frankliniella occidentalis (Western Flower Thrips
Sunflower leaf discs were placed on agar in 24-well microtiter plates and sprayed with aqueous test solutions prepared from […] stock solutions. After drying the leaf discs were infested with a Frankliniella population of mixed ages. The samples were assessed for mortality 7 days after infestation.

[3] = tested on: Diabrotica balteata (Corn Root Worm); test: Example B1: Diabrotica balteata (corn root worm), sprayed maize sprouts on agar, L2 larvae; conditions: 96 h, application rate of 200 ppm, 4 days after infestation, in comparison to untreated samples, read-out: effect in at least one of the two categories (mortality or growth inhibition)
Procedure: Example B1: Diabrotica balteata (Corn Root Worm
Maize sprouts placed onto an agar layer in 24-well microtiter plates were treated with aqueous test solutions prepared from 10′000 ppm DMSO stock solutions by spraying. After drying, the plates were infested with L2 larvae (6 to 10 per well). The samples were assessed for mortality and growth inhibition in comparison to untreated samples 4 days after infestation.

[4] = tested on: Plutella xylostella (Diamond Back Moth); test: Example B4: Plutella xylostella (diamond back moth), treated artificial diet, eggs; conditions: 192 h, application rate of 200 ppm, 8 days after infestation, in comparison to untreated samples, read-out: effect in at least one of the two categories (mortality or growth inhibition)
Procedure: Example B4: Plutella xylostella (Diamond Back Moth
24-well microtiter plates with artificial diet were treated with aqueous test solutions prepared from 10′000 ppm DMSO stock solutions by pipetting. After drying, Plutella eggs were pipetted through a plastic stencil onto a gel blotting paper and the plate was closed with it. The samples were assessed for mortality and growth inhibition in comparison to untreated samples 8 days after infestation.

[5] = tested on: Euschistus heros (Neotropical Brown Stink Bug); test: Example B2: Euschistus heros (neotropical brown stink bug), sprayed soybean leaves, N2 nymphs; conditions: 120 h, application rate of 200 ppm, 5 days after infestation, in comparison to untreated samples, read-out: effect in at least one of the two categories (mortality or growth inhibition)
Procedure: Example B2: Euschistus heros (Neotropical Brown Stink Bug
Soybean leaves on agar in 24-well microtiter plates were sprayed with aqueous test solutions prepared from 10′000 ppm DMSO stock solutions. After drying the leaves were infested with N2 nymphs. The samples were assessed for mortality and growth inhibition in comparison to untreated samples 5 days after infestation.

[6] = tested on: Myzus persicae (Green Peach Aphid); test: Example B5: Myzus persicae (green peach aphid), feeding/contact activity, sprayed sunflower leaf discs; conditions: foliar, 144 h, application rate of 200 ppm, aphid population of mixed ages, 6 days after infestation
Procedure: Example B5: Myzus persicae (Green Peach Aphid). Feeding/Contact Activity
Sunflower leaf discs were placed onto agar in a 24-well microtiter plate and sprayed with aqueous test solutions prepared from 10′000 ppm DMSO stock solutions. After drying, the leaf discs were infested with an aphid population of mixed ages. The samples were assessed for mortality 6 days after infestation.

CCN=S(=O)(c1ccc2oc(-c3ncc(N=S(C)(C)=O)cc3S(=O)(=O)CC)nc2c1)C(F)(F)F (centres unmarked) [P2, [2-[5-[[dimethyl(oxo)-λ^6-sulfanylidene]amino]-3-ethylsulfonyl-2-pyridyl]-1,3-benzoxazol-5-yl]-ethylimino-oxo-(trifluoromethyl)-λ^6-sulfane]
≥ 80%: percent control (mortality, anti-feeding effect or growth inhibition) at 200 ppm [1] | mortality at 200 ppm [2] | percent effect (mortality or growth inhibition) at 200 ppm [3] | percent effect (mortality or growth inhibition) at 200 ppm [4] | effect (mortality or growth inhibition) at 200 ppm [5]

CCS(=O)(=O)c1cc(Oc2ccccn2)cnc1-c1nc2cc(S(=N)(=O)C(F)(F)F)ccc2o1 (centres unmarked) [P9, [2-[3-ethylsulfonyl-5-(2-pyridyloxy)-2-pyridyl]-1,3-benzoxazol-5-yl]-imino-oxo-(trifluoromethyl)-λ^6-sulfane]
≥ 80%: percent control (mortality, anti-feeding effect or growth inhibition) at 200 ppm [1] | mortality at 200 ppm [6] | percent effect (mortality or growth inhibition) at 200 ppm [3] | percent effect (mortality or growth inhibition) at 200 ppm [4] | effect (mortality or growth inhibition) at 200 ppm [5]

CCN=S(=O)(c1ccc2oc(-c3ncc(C4CC4)cc3S(=O)(=O)CC)nc2c1)C(F)(F)F (centres unmarked) [P11, [2-(5-cyclopropyl-3-ethylsulfonyl-2-pyridyl)-1,3-benzoxazol-5-yl]-ethylimino-oxo-(trifluoromethyl)-λ^6-sulfane]
≥ 80%: percent control (mortality, anti-feeding effect or growth inhibition) at 200 ppm [1] | mortality at 200 ppm [6] | percent effect (mortality or growth inhibition) at 200 ppm [3] | percent effect (mortality or growth inhibition) at 200 ppm [4] | effect (mortality or growth inhibition) at 200 ppm [5]

CCS(=O)(=O)c1cc(C2CC2)cnc1-c1nc2cc(S(=N)(=O)C(F)(F)F)ccc2o1 (centres unmarked) [P12, [2-(5-cyclopropyl-3-ethylsulfonyl-2-pyridyl)-1,3-benzoxazol-5-yl]-imino-oxo-(trifluoromethyl)-λ^6-sulfane]
≥ 80%: percent control (mortality, anti-feeding effect or growth inhibition) at 200 ppm [1] | mortality at 200 ppm [2] | mortality at 200 ppm [6] | percent effect (mortality or growth inhibition) at 200 ppm [3] | percent effect (mortality or growth inhibition) at 200 ppm [4] | effect (mortality or growth inhibition) at 200 ppm [5]

CCS(=O)(=O)c1cccnc1-c1nc2cc(S(=O)(=NC)C(F)(F)F)ccc2o1 (centres unmarked) [P18, [2-(3-ethylsulfonyl-2-pyridyl)-1,3-benzoxazol-5-yl]-methylimino-oxo-(trifluoromethyl)-λ^6-sulfane]
≥ 80%: percent control (mortality, anti-feeding effect or growth inhibition) at 200 ppm [1] | mortality at 200 ppm [6] | percent effect (mortality or growth inhibition) at 200 ppm [3] | percent effect (mortality or growth inhibition) at 200 ppm [4] | effect (mortality or growth inhibition) at 200 ppm [5]

CCN=S(=O)(c1ccc2oc(-c3ncccc3S(=O)(=O)CC)nc2c1)C(F)(F)F (centres unmarked) [P19, ethylimino-[2-(3-ethylsulfonyl-2-pyridyl)-1,3-benzoxazol-5-yl]-oxo-(trifluoromethyl)-λ^6-sulfane]
≥ 80%: percent control (mortality, anti-feeding effect or growth inhibition) at 200 ppm [1] | mortality at 200 ppm [6] | percent effect (mortality or growth inhibition) at 200 ppm [3] | percent effect (mortality or growth inhibition) at 200 ppm [4] | effect (mortality or growth inhibition) at 200 ppm [5]

CCS(=O)(=O)c1cc(OCC(C)(F)F)cnc1-c1nc2cc(S(=N)(=O)C(F)(F)F)ccc2o1 (centres unmarked) [P26, [2-[5-(2,2-difluoropropoxy)-3-ethylsulfonyl-2-pyridyl]-1,3-benzoxazol-5-yl]-imino-oxo-(trifluoromethyl)-λ^6-sulfane]
≥ 80%: percent control (mortality, anti-feeding effect or growth inhibition) at 200 ppm [1] | mortality at 200 ppm [2] | mortality at 200 ppm [6] | percent effect (mortality or growth inhibition) at 200 ppm [3] | percent effect (mortality or growth inhibition) at 200 ppm [4] | effect (mortality or growth inhibition) at 200 ppm [5]

CCN=S(=O)(c1ccc2oc(-c3ncc(OCC(C)(F)F)cc3S(=O)(=O)CC)nc2c1)C(F)(F)F (centres unmarked) [P27, [2-[5-(2,2-difluoropropoxy)-3-ethylsulfonyl-2-pyridyl]-1,3-benzoxazol-5-yl]-ethylimino-oxo-(trifluoromethyl)-λ^6-sulfane]
≥ 80%: percent control (mortality, anti-feeding effect or growth inhibition) at 200 ppm [1] | mortality at 200 ppm [2] | mortality at 200 ppm [6] | percent effect (mortality or growth inhibition) at 200 ppm [3] | percent effect (mortality or growth inhibition) at 200 ppm [4] | effect (mortality or growth inhibition) at 200 ppm [5]

CCS(=O)(=O)c1cc(-c2nccc(C(F)(F)F)n2)cnc1-c1nc2cc(S(=N)(=O)C(F)(F)F)ccc2o1 (centres unmarked) [P40, [2-[3-ethylsulfonyl-5-[4-(trifluoromethyl)pyrimidin-2-yl]-2-pyridyl]-1,3-benzoxazol-5-yl]-imino-oxo-(trifluoromethyl)-λ^6-sulfane]
≥ 80%: percent control (mortality, anti-feeding effect or growth inhibition) at 200 ppm [1] | mortality at 200 ppm [2] | percent effect (mortality or growth inhibition) at 200 ppm [3] | percent effect (mortality or growth inhibition) at 200 ppm [4] | effect (mortality or growth inhibition) at 200 ppm [5]

CCS(=O)(=O)c1cc(Oc2ccccn2)cnc1-c1nc2cc(S(=N)(=O)C(F)(F)F)ccc2n1C (centres unmarked) [P50, [2-[3-ethylsulfonyl-5-(2-pyridyloxy)-2-pyridyl]-1-methyl-benzimidazol-5-yl]-imino-oxo-(trifluoromethyl)-λ^6-sulfane]
≥ 80%: percent control (mortality, anti-feeding effect or growth inhibition) at 200 ppm [1] | mortality at 200 ppm [6] | percent effect (mortality or growth inhibition) at 200 ppm [3] | percent effect (mortality or growth inhibition) at 200 ppm [4] | effect (mortality or growth inhibition) at 200 ppm [5]

CCN=S(=O)(c1ccc2c(c1)nc(-c1ncc(Oc3ccccn3)cc1S(=O)(=O)CC)n2C)C(F)(F)F (centres unmarked) [P51, ethylimino-[2-[3-ethylsulfonyl-5-(2-pyridyloxy)-2-pyridyl]-1-methyl-benzimidazol-5-yl]-oxo-(trifluoromethyl)-λ^6-sulfane]
≥ 80%: percent control (mortality, anti-feeding effect or growth inhibition) at 200 ppm [1] | mortality at 200 ppm [6] | percent effect (mortality or growth inhibition) at 200 ppm [3] | percent effect (mortality or growth inhibition) at 200 ppm [4] | effect (mortality or growth inhibition) at 200 ppm [5]

CCS(=O)(=O)c1cc(-c2ncc(C#N)cn2)cnc1-c1nc2cc(S(=N)(=O)C(F)(F)F)ccc2n1C (centres unmarked) [P52, 2-[5-ethylsulfonyl-6-[1-methyl-5-(trifluoromethylsulfonimidoyl)benzimidazol-2-yl]-3-pyridyl]pyrimidine-5-carbonitrile]
≥ 80%: percent control (mortality, anti-feeding effect or growth inhibition) at 200 ppm [1] | mortality at 200 ppm [6] | percent effect (mortality or growth inhibition) at 200 ppm [3] | percent effect (mortality or growth inhibition) at 200 ppm [4] | effect (mortality or growth inhibition) at 200 ppm [5]

CCN=S(=O)(c1ccc2c(c1)nc(-c1ncc(-c3ncc(C#N)cn3)cc1S(=O)(=O)CC)n2C)C(F)(F)F (stereo not drawn) [P53, 2-[5-ethylsulfonyl-6-[5-[N-ethyl-S-(trifluoromethyl)sulfonimidoyl]-1-methyl-benzimidazol-2-yl]-3-pyridyl]pyrimidine-5-carbonitrile]
≥ 80%: percent control (mortality, anti-feeding effect or growth inhibition) at 200 ppm [1] | mortality at 200 ppm [6] | percent effect (mortality or growth inhibition) at 200 ppm [3] | percent effect (mortality or growth inhibition) at 200 ppm [4] | effect (mortality or growth inhibition) at 200 ppm [5]
